The values below come from US20210130617A1, “COLORING COMPOSITION, FILM, COLOR FILTER, METHOD FOR MANUFACTURING COLOR FILTER, SOLID-STATE IMAGING ELEMENT, AND IMAGE DISPLAY DEVICE” (FUJIFILM Corporation, priority 2018, published 2021).

A short description of series [1]: Solubility in PGMEA at 25° C. (visual check of insoluble matters). The series is classed as physicochemical. An excerpt:
The evaluation standard is as follows.

Series [2] is described as follows: Maximum absorption wavelength in chloroform (Cary 5000 spectrophotometer). The class given is physicochemical. To be noted: wavelength range 400 to 800 nm. The method, then:
In addition, the maximum absorption wavelength was obtained by dissolving 50 mg of each compound in 200 mL of chloroform, adding chloroform to 2 mL of this solution so as to be 200 mL, and measuring the absorbance of the solution in a wavelength range of 400 to 800 nm using Cary 5000 UV-Vis-NIR spectrophotometer (manufactured by Agilent Technologies, Inc.).

Take `O=C1C(=C2C=CC(=[N+](c3ccccc3)c3cccc4ccccc34)C=C2O)C([O-])=C1c1ccc(N(c2ccccc2)c2cccc3ccccc23)cc1O` [SQ-1]: the Solubility result in series [1] was “A (solubility is 20 mg/L or less.)”. In series [2], the Maximum absorption wavelength came to 670 nm.
As for `Cc1ccc(N(c2ccc(C3=C([O-])C(=C4C=CC(=[N+](c5ccc(C)cc5)c5cccc6ccccc56)C=C4O)C3=O)c(O)c2)c2cccc3ccccc23)cc1` [SQ-2], the Solubility result in series [1] is “B (solubility is more than 20 mg/L and 25 mg or less.)”. In series [2], the Maximum absorption wavelength worked out at 675 nm.
Consider `Cc1cccc(N(c2ccc(C3=C([O-])C(=C4C=CC(=[N+](c5cccc(C)c5)c5cccc6ccccc56)C=C4O)C3=O)c(O)c2)c2cccc3ccccc23)c1` [SQ-3], for which the Solubility result in series [1] is “B (solubility is more than 20 mg/L and 25 mg or less.)”. In addition, in series [2], the Maximum absorption wavelength came to 675 nm.
`Cc1ccccc1N(c1ccc(C2=C([O-])C(=C3C=CC(=[N+](c4ccccc4C)c4cccc5ccccc45)C=C3O)C2=O)c(O)c1)c1cccc2ccccc12` [SQ-4]: in series [1], the Solubility result is “B (solubility is more than 20 mg/L and 25 mg or less.)”. The Maximum absorption wavelength in series [2] was found to be 675 nm.
In the case of `Cc1ccc(N(c2ccc(C3=C([O-])C(=C4C=CC(=[N+](c5ccc(C)cc5C)c5cccc6ccccc56)C=C4O)C3=O)c(O)c2)c2cccc3ccccc23)c(C)c1` [SQ-7], the Solubility entry in series [1] was “C (solubility is more than 25 mg/L and 30 mg or less.)”. Moreover, the Maximum absorption wavelength in series [2] was determined as 680 nm.
As to `O=C1C(=C2C=CC(=[N+](c3ccc(Cl)cc3)c3cccc4ccccc34)C=C2O)C([O-])=C1c1ccc(N(c2ccc(Cl)cc2)c2cccc3ccccc23)cc1O` [SQ-12], the Solubility entry in series [1] is “A (solubility is 20 mg/L or less.)”. Also, in series [2], the Maximum absorption wavelength is recorded as 665 nm.
Take `CCc1ccc(N(c2ccc(C3=C([O-])C(=C4C=CC(=[N+](c5ccc(CC)cc5)c5cccc6ccccc56)C=C4O)C3=O)c(O)c2)c2cccc3ccccc23)cc1` [SQ-13]: the Solubility result in series [1] was “B (solubility is more than 20 mg/L and 25 mg or less.)”. Further, the Maximum absorption wavelength in series [2] is reported as 675 nm.
Consider `CC(C)(C)c1ccc(N(c2ccc(C3=C([O-])C(=C4C=CC(=[N+](c5ccc(C(C)(C)C)cc5)c5cccc6ccccc56)C=C4O)C3=O)c(O)c2)c2cccc3ccccc23)cc1` [SQ-14], for which the Solubility result in series [1] was “C (solubility is more than 25 mg/L and 30 mg or less.)”. Also, the Maximum absorption wavelength in series [2] turned out to be 670 nm.
For the compound `CCOc1ccc(N(c2ccc(C3=C([O-])C(=C4C=CC(=[N+](c5ccc(OCC)cc5)c5cccc6ccccc56)C=C4O)C3=O)c(O)c2)c2cccc3ccccc23)cc1` [SQ-15], the Solubility result in series [1] is “B (solubility is more than 20 mg/L and 25 mg or less.)”. Besides, the Maximum absorption wavelength in series [2] stood at 680 nm.
As to `N#Cc1ccc(N(c2ccc(C3=C([O-])C(=C4C=CC(=[N+](c5ccc(C#N)cc5)c5cccc6ccccc56)C=C4O)C3=O)c(O)c2)c2cccc3ccccc23)cc1` [SQ-16], the Solubility entry in series [1] is on record as “A (solubility is 20 mg/L or less.)”. Besides, the Maximum absorption wavelength in series [2] turned out to be 660 nm.
Consider `CSc1ccc(N(c2ccc(C3=C([O-])C(=C4C=CC(=[N+](c5ccc(SC)cc5)c5cccc6ccccc56)C=C4O)C3=O)c(O)c2)c2cccc3ccccc23)cc1` [SQ-17], for which the Solubility entry in series [1] was “A (solubility is 20 mg/L or less.)”. Further, the Maximum absorption wavelength in series [2] turned out to be 675 nm.
Taken in the same sequence, the figures for `CN(C)c1ccc(N(c2ccc(C3=C([O-])C(=C4C=CC(=[N+](c5ccc(N(C)C)cc5)c5cccc6ccccc56)C=C4O)C3=O)c(O)c2)c2cccc3ccccc23)cc1` [SQ-18] were “A (solubility is 20 mg/L or less.)” and 685 nm.
For `CC(=O)Nc1ccc(N(c2ccc(C3=C([O-])C(=C4C=CC(=[N+](c5ccc(NC(C)=O)cc5)c5cccc6ccccc56)C=C4O)C3=O)c(O)c2)c2cccc3ccccc23)cc1` [SQ-19], in that order: “A (solubility is 20 mg/L or less.)” and 670 nm.
With `O=C1C(=C2C=CC(=[N+](c3ccco3)c3cccc4ccccc34)C=C2O)C([O-])=C1c1ccc(N(c2ccco2)c2cccc3ccccc23)cc1O` [SQ-25], the Solubility entry in series [1] was “B (solubility is more than 20 mg/L and 25 mg or less.)”. Further, the Maximum absorption wavelength in series [2] stood at 665 nm.
For `O=C1C(=C2C=CC(=[N+](c3cccc4ccccc34)c3cccc4ccccc34)C=C2O)C([O-])=C1c1ccc(N(c2cccc3ccccc23)c2cccc3ccccc23)cc1O` [SQ-29], the Solubility entry in series [1] is recorded as “A (solubility is 20 mg/L or less.)”. In addition, the Maximum absorption wavelength in series [2] was found to be 680 nm.
Regarding `O=C1C(=C2C=CC(=[N+](c3ccccc3)c3cc(C(F)(F)F)cc(C(F)(F)F)c3)C=C2O)C([O-])=C1c1ccc(N(c2ccccc2)c2cc(C(F)(F)F)cc(C(F)(F)F)c2)cc1O` [SQ-67], the Solubility entry in series [1] is “C (solubility is more than 25 mg/L and 30 mg or less.)”. Besides, the Maximum absorption wavelength in series [2] worked out at 675 nm.
Consider `O=C1C(=C2C(O)=CC(=[N+](c3ccc(Cl)cc3)c3cccc4ccccc34)C=C2O)C([O-])=C1c1c(O)cc(N(c2ccc(Cl)cc2)c2cccc3ccccc23)cc1O` [SQ-74], for which the Solubility result in series [1] is given as “A (solubility is 20 mg/L or less.)”. The compound further displayed a Maximum absorption wavelength in series [2] of 665 nm.
`O=C1C(=C2C(O)=CC(=[N+](c3cccc4ccccc34)c3cccc4ccccc34)C=C2O)C([O-])=C1c1c(O)cc(N(c2cccc3ccccc23)c2cccc3ccccc23)cc1O` [SQ-77]: the Solubility result in series [1] was “A (solubility is 20 mg/L or less.)”. For the same compound, the Maximum absorption wavelength in series [2] is reported as 670 nm.
Taken in the same sequence, the figures for `O=C1C(=C2C(O)=CC(=[N+](c3ccccc3)c3ccc4ccccc4c3)C=C2O)C([O-])=C1c1c(O)cc(N(c2ccccc2)c2ccc3ccccc3c2)cc1O` [SQ-96] were “A (solubility is 20 mg/L or less.)” and 690 nm.
For `CCOC1=CC(=[N+](c2ccccc2)c2cccc3ccccc23)C=CC1=C1C(=O)C(c2ccc(N(c3ccccc3)c3cccc4ccccc34)cc2OCC)=C1[O-]` [SQ-101], in that order: “A (solubility is 20 mg/L or less.)” and 690 nm.
For `O=C1C(=C2C(O)=CC(=[N+](c3ccccc3)c3cccc4ccccc34)c3ccccc32)C([O-])=C1c1c(O)cc(N(c2ccccc2)c2cccc3ccccc23)c2ccccc12` [SQ-104], in that order: “A (solubility is 20 mg/L or less.)” and 695 nm.
Regarding `O=C1C(=C2C=CC(=[N+](c3ccccc3-c3ccccc3)c3ccccc3[N+](=O)[O-])C=C2O)C([O-])=C1c1ccc(N(c2ccccc2-c2ccccc2)c2ccccc2[N+](=O)[O-])cc1O` [SQ-108], the Solubility entry in series [1] is on record as “A (solubility is 20 mg/L or less.)”. In series [2], the Maximum absorption wavelength is 685 nm.
In the case of `O=C1C(=C2C=CC(=[N+](c3ccccc3-c3ccccc3)c3ccccc3-c3ccccc3)C=C2O)C([O-])=C1c1ccc(N(c2ccccc2-c2ccccc2)c2ccccc2-c2ccccc2)cc1O` [SQ-110], the Solubility entry in series [1] is “A (solubility is 20 mg/L or less.)”. The compound also came in with a Maximum absorption wavelength in series [2] of 675 nm.
As to `CCCCN(CCCC)c1cc(O)c(C2=C([O-])C(=C3C(O)=CC(=[N+](CCCC)CCCC)C=C3O)C2=O)c(O)c1` [SQ-R1, reference compound], the solubility at 15 min in series [1] (organic solvent or mixture, thermodynamic from solid) was greater than 30 µg/mL. In series [2], the Maximum absorption wavelength is on record as 655 nm.

As usually defined, the solubility is the dissolved amount per volume that the medium holds.
